Values after ≈ are worked out from the molar mass of the structure shown.
What was measured:
Format in all cases: cell-based
HIV-1 NL432 = assay: Anti-HIV/SIV activity in infected Molt-4 cells, virus amount by RT activity; conditions: RT activity of supernatant at 5 days postinfection
Description: (§1) (1) Molt-4 cells (2×10^6 cells) were infected with HIV-1 NL432 (4×10^6 cpm), HIV-2 Rod (8×10^6 cpm), SIVmac MA239 (8×10^6 cpm) and SIVagm SA212 (8×10^6 cpm), and incubated for 1 hr at room temperature.
(§2) (1) Preparation of HIV-1 NL432: SW480 cells were cultured in DMEM medium supplemented with 10% fetal bovine serum using 25 cm^2 flask. HIV-1 infectious molecular DNA (40 μg), pNL432, transfected to the cells by calcium phosphate coprecipitation method, and the supernatant (2 ml) at 2-3 days post-transfection was infected to M8166 cells (1×10^6 cells). The cells were cultured in 10 ml RPMI medium supplemented with 10% fetal bovine serum in CO2 incubator at 37° C. After apparent giant cells were observed, the cells were removed by centrifugation and then the supernatant was filtrated by 0.45 μm filter, measured RT activity, and stored at −80° C. as HIV-1 stock virus.
(§3) (2) The cells were washed twice to remove the viruses and suspended in 10 ml RPMI medium supplemented with 10% fetal bovine serum. The infected cells (100 μl) were plated in 96 well microtiter plates containing with the serial 5 fold dilution of compounds (100 μl) and cultured in CO2 incubator at 37° C.
(§4) (3) The supernatant at 5 days postinfection was harvested and measured the amount of the virus by RT activity.
(§5) Preparation of the solution for RT assay:
(§6) A reaction mixture (90 μl) were contained 50 mM Tris-HCl, pH 8.3, 150 mM KCl, 10 mM MgCl2, 0.1% Nonidet P-40, 10 mM DTT (dithiothreitol), 5 μg/ml poly(rA), 5 μg/ml (dT)12-18 and 1 μCi [^3H] dTTP at final concentration after mixture of a sample (10 μl).
(§7) The procedure of RT assay:
(§8) 1. 10 μl of sample was plated to 3 wells of 96 well microtiter plate (triplicate assay).
(§9) 2. Reaction mixture (90 μl) chilled at 4° C. was added to each well, mixed and then incubate at 37° C. for 3 hrs.
(§10) 3. After incubation, the plate was chilled on ice, and passed through a DEAE-Filtermat using cell harvester. The filter was washed with 4.5% Na2HPO4 (20 sec) and H2O (10 sec).
(§11) 4. The filter was dried at 95° C. for 15 min.
(§12) 5. 10 ml of scintilator was added and sealed.
(§13) 6. Radioactivity was measured by LKB Beta Plate scintillation spectroscopy.
(§14) 7. RT activity (cpm/ml) was calculated from average of three wells.

HIV-2 Rod = assay: as above; conditions: RT activity of supernatant at 5 days postinfection
Description: as §1
(2) Preparation of […] Rod: HIV-2 Rod was infected to M8166 cells (1×10^6 cells). The cells were cultured in 10 ml RPMI medium supplemented with 10% fetal bovine serum in CO2 incubator at 37° C. After apparent giant cells were observed, the cells were removed by centrifugation and then the supernatant was filtrated by 0.45 μm filter, measured RT activity, and stored at −80° C. as HIV-2 stock virus.
as §3, §4, §5, §6, §7, §8, §9, §10, §11, §12, §13, §14

SIVmac MA239 = assay: as above; conditions: RT activity of supernatant at 5 days postinfection
Description: as §1
as §2, with “(3) Preparation” for “(1) Preparation”, “of SIVmac MA239:” for “of HIV-1 NL432:”, “flask. SIVmac MA239” for “flask. HIV-1”, “μg), pMA239,” for “μg), pNL432,”, “to CEMX174” for “to M8166”, “as SIVmac” for “as HIV-1”
as §3, §4, §5, §6, §7, §8, §9, §10, §11, §12, §13, §14

SIVagm SA212 = assay: as above; conditions: RT activity of supernatant at 5 days postinfection
Description: as §1
(4) Preparation of SIVagm SA212: SW480 cells were cultured in DMEM medium supplemented with 10% fetal bovine serum using 25 cm^2 flask. SIVagm SA212 infectious molecular DNA (40 μg), pSA212, transfected to the cells by calcium phosphate coprecipitation methods, and the supernatant (2 ml) at 2-3 days post-transfection was infected to M8166 cells (1×10^6 cells). The cells were cultured in 10 ml RPMI medium supplemented with 10% fetal bovine serum in CO2 incubator at 37° C. Every 3 days, the cells were separated from the supernatant by centrifugation and continued culture with new medium. The each supernatant was filtrated by 0.45 μm filter, measured RT activity, and stored at −80° C. as SIVagm stock virus.
as §3, §4, §5, §6, §7, §8, §9, §10, §11, §12, §13, §14

[1] = tested on: feline immunodeficiency virus (FIV TM-2 strain); assay: Anti-FIV activity in MYA-1 feline T-cells, virus amount by RT activity; conditions: FIV TM-2 in MYA-1 cells, RT activity at 10 days postinfection
Description: (1) The serial 5 fold diluted samples were plated in 24 well microtiter plate. Feline T-cell lines (MYA-1 cells: 4×10^5 cells/well) and feline immunodeficiency virus (FIV TM-2 strain: 3000 cpm/well) were added to each well. The cells were cultured with 1.5 ml RPMI medium supplemented with 10% fetal bovine serum, 2 μg/ml polybrene, 100 unit/ml human recombinant IL-2 and 50 μM 2-mercaptoethanol in CO2 incubator at 37° C.
1. Preparation of FIV TM-2: FIV TM-2 was infected to MYA-1 cells (1×10^6 cells). The cells were cultured in 10 ml RPMI medium supplemented with 10% fetal bovine serum, 2 μg/ml polybrene, 100 unit/ml human recombinant IL-2 and 50 μM 2-mercaptoethanol in CO2 incubator at 37° C. Every 1-2 days, the cells were separated from the supernatant by centrifugation and continued culture with new medium. Each of the supernatant was filtrated by 0.45 μm filter, measured RT activity, and stored at as −80° C. as FIV stock virus.
(2) Every 1-2 days, the supernatants were measured the amount of the virus by RT activity (as same as experimental example 2).

Structure (SMILES): Cc1cn([C@H]2C[C@H](N=[N+]=[N-])[C@@H](CO)O2)c(=O)[nH]c1=O [AZT]
- Anti-HIV/SIV activity EC50, HIV-1 NL432 (HIV-1 NL432): 0.51 ng/mL
- Anti-HIV/SIV activity EC50, HIV-2 Rod (HIV-2 Rod): 0.28 ng/mL
- Anti-HIV/SIV activity EC50, SIVmac (SIVmac MA239): 0.35 ng/mL
- Anti-HIV/SIV activity EC50, SIVagm (SIVagm SA212): 0.36 ng/mL
- EC50 [1]: 48 ng/mL (≈ 0.18 µM)
